Test results from patent US20240327454A1, “DETERGENT AND METHOD FOR PURIFYING A BIOTHERAPEUTIC” (MEDIMMUNE, LLC, priority 2020, published 2024).

What was measured:
AAV6.2 cell paste = assay: Detergent lysis of AAV6.2 cell paste slurry, lysate AAV titer by qPCR; type: cell-based; details: for Lysate AAV6 Titer: 0.5% detergent, AAV6 cell paste lot A8498, 1 hour at RT
Description: (§1) An AAV6.2 cell paste slurry was generated and stored at −80° C. Brij L9 (Laureth-9) was sourced from Croda International Plc. (East Yorkshire, United Kingdom). Triton X-100 was sourced from Spectrum Chemical (New Brunswick, NJ). Capto AVB resin was sourced from GE Healthcare (Piscataway, NJ). COSP filters were obtained from EMD Millipore (Burlington, MA). Sartopore 2 XLG, 0.8/0.2 um filters were obtained from Sartorius Stedim Biotech GmbH (Gottingen, Germany). All the buffer salts were sourced from Avantor Performance Chemicals (Center Valley, Pennsylvania).
(§2) For detergent lysis, the AAV6.2 cell paste was diluted to a 10% slurry with 20 mM Tris, 200 mM NaCl, 2 mM MgCl2, pH 7.5. 10% (w/w) detergent stock solution was spiked into cell slurry to bring final detergent concentration to 0.5% (v/w). Benzonase was spiked to 10 U/ml into cell slurry mixture and mixed slowly at RT for 1 hour.
(§3) AAV Purification was performed using a Capto AVB affinity column. Purification was controlled by Unicorn 7.0 software on an AKTA AVANT purchased from GE Healthcare (Piscataway, NJ). COSP POD filter was flushed with 20 mM Tris, 500 mM NaCl, 2 mM MgCl2, pH 7.5. 10% AAV6.2 cell lysate was clarified with COSP followed by Sartopore 2 XLG, 0.8/0.2 um filter. Capto AVB column was equilibrated with 20 mM Tris, 200 mM NaCl, 2 mM MgCl2, pH 7.5 for 3 column volumes (CV). Clarified cell lysate was loaded with residence time of 6 min. Column was re-equilibrated with 20 mM Tris, 200 mM NaCl, 2 mM MgCl2, pH 7.5 for 4 CV. Product was eluted from column with 50 mM citric acid, 500 mM NaCl, 2 mM MgCl2, pH 2.5. Eluate pH was adjusted to pH 8.0 with 1 M Tris/HCl, pH 8.0 AAV Titer was determined by centrifuging 10% lysate at 13,000 rpm for 10 min and collecting the supernatant. AAV titer was determined with in-house qPCR method.

XMuLV [1] = assay: Viral inactivation by 1% detergent in XMuLV-spiked BisAb cell harvest media, plaque assay (Example 1); type: cell-based, murine xenotropic leukemia virus-related virus; parameters: Virus concentration: unit not given here; details: for Log10 reduction value / Virus concentration: BisAb harvest media; for Virus concentration: room temperature; for viral inactivation kinetics: in words, compared to Laureth-9
Text: The viral inactivation of four detergents was examined using a CHO-derived cell harvest material for a monovalent bispecific human IgG1 monoclonal antibody. Brij L9 (Laureth-9), Myrj S25, and Brij S20 were sourced from Croda International Plc. (East Yorkshire, United Kingdom). Polidocanol 600 (Laureth-9) was sourced from Schärer & Schläpfer AG (Rothrist, Switzerland).
(§4) Harvest media was spiked with murine xenotropic leukemia virus-related virus (XMuLV) stock prior to the detergent spike.
(§5) Conditioned cell harvest media containing a monovalent bispecific human IgG1 monoclonal antibody (BisAb) was spiked with 8.5 logs of XMuLV. A sample of the virus spiked harvest media was collected and used as a hold control to determine the rate of viral inactivation without detergent.
(§6) A 10% (w/w) stock solution was made by dissolving detergent into 50 mM Tris pH 7.4. A cell harvest sample of BisAb media spiked with XMuLV was spiked to a 1% detergent concentration using an appropriate amount of the 10% stock solution. The hold control and reaction samples were incubated at room temperature. Samples were collected at 1, 10, 60, and 120 minutes and diluted 1:50 in McCoy medium to stop the viral inactivation reaction. Diluted samples and hold control were assayed for viral concentration using a plaque assay.

AAV6.2 = assay: AAV purification on Capto AVB after cell lysis, eluate titer and infectivity; details: for CaptoAVB Elu Infectivity / CaptoAVB Elu Titer: detergent cell lysis, cell paste lot A8489 (Brij-L9), A8102 (Triton X100)
Description: as §1, §2
For freeze-and-thaw lysis, the cell paste slurry was put through 2 freeze-thaw cycles at −80° C. and RT. AAV lysate was diluted to 10% slurry with 20 mM Tris, 200 mM NaCl, 2 mM MgCl2, pH 7.5. Benzonase was spiked to 10 U/ml into cell slurry mixture and mixed slowly at RT for 1 hour.
as §3

XMuLV [2] = assay: Viral inactivation by Laureth-9 in XMuLV-spiked BisAb or BisFusion conditioned media (Example 2); type: cell-based, murine xenotropic leukemia virus-related virus
Description: as §4, §5, §6
A study was performed essentially as described in Example 1 to examine the viral inactivation using detergent concentrations of 1% Brij L9 (Laureth-9, sourced from Croda International Plc., East Yorkshire, United Kingdom) and 1% Polidodecanol 600 (Laureth-9, sourced from Schärer & Schläpfer AG, Rothrist, Switzerland) for CHO-derived conditioned media for BisAb and 1% or 0.1% Brij L9 for CHO-derived conditioned media for a bispecific fusion protein (BisFusion).

aquatic organisms = details: cited from earlier work
enveloped virus = details: cited from earlier work
[3] = 0 min, 0.1% detergent, BisFusion
[4] = 10 min, 0.1% detergent, BisFusion
[5] = 10 min, 1% detergent, BisFusion
[6] = 60 min, 0.1% detergent, BisFusion
[7] = 60 min, 1% detergent, BisFusion
[8] = <1 min, 0.1% detergent, BisFusion
[9] = <1 min, 1% detergent, BisFusion

CCCCCCCCCCCCOCCOCCOCCOCCOCCOCCOCCOCCOCCO [Brij L9, 3,6,9,12,15,18,21,24,27-nonaoxanonatriacontan-1-ol]
Lysate AAV6 Titer (AAV6.2 cell paste): 11.04 Log10 vg/mL | cell lysis for AAV purification (AAV6.2 cell paste; in words, compared with Triton X-100): as effective for cell lysis for AAV purification as Triton X-100 | Log10 reduction value (XMuLV [1]; 0 min): 0 Log10 | Virus concentration (XMuLV [1]; 0 min): 7.79 | Log10 reduction value (XMuLV [1]; 10 min): >4.61 Log10 | Virus concentration (XMuLV [1]; 10 min): <3.18 | Log10 reduction value (XMuLV [1]; 60 min): >4.61 Log10 | Virus concentration (XMuLV [1]; 60 min): <3.18 | Log10 reduction value (XMuLV [1]; 120 min): >4.61 Log10 | Virus concentration (XMuLV [1]; 120 min): <3.18 | viral inactivation kinetics (XMuLV [1]): improved, desirable viral inactivation kinetics | CaptoAVB Elu Infectivity (AAV6.2): 10.5 Log10 TCID50/mL | CaptoAVB Elu Titer (AAV6.2): 12.2 Log10 vg/mL | impact on AAV infectivity (AAV6.2; in words): does not show any negative impact | Log10 reduction value (XMuLV [2]; [3]): 0 Log10 | Virus concentration (XMuLV [2]; [3]): 7.21 | Log10 reduction value (XMuLV [2]; 0 min, 1% detergent, BisAb): 0 Log10 | Virus concentration (XMuLV [2]; 0 min, 1% detergent, BisAb): 7.00 | Log10 reduction value (XMuLV [2]; 0 min, 1% detergent, BisFusion): 0 Log10 | Virus concentration (XMuLV [2]; 0 min, 1% detergent, BisFusion): 7.21 | Log10 reduction value (XMuLV [2]; [4]): >3.88 Log10 | Virus concentration (XMuLV [2]; [4]): <2.88 | Log10 reduction value (XMuLV [2]; 10 min, 1% detergent, BisAb): >4.07 Log10 | Virus concentration (XMuLV [2]; 10 min, 1% detergent, BisAb): <2.88 | Log10 reduction value (XMuLV [2]; [5]): >3.84 Log10 | Virus concentration (XMuLV [2]; [5]): <2.88 | Log10 reduction value (XMuLV [2]; [6]): >3.88 Log10 | Virus concentration (XMuLV [2]; [6]): <2.88 | Log10 reduction value (XMuLV [2]; 60 min, 1% detergent, BisAb): >4.07 Log10 | Virus concentration (XMuLV [2]; 60 min, 1% detergent, BisAb): <2.88 | Log10 reduction value (XMuLV [2]; [7]): >3.84 Log10 | Virus concentration (XMuLV [2]; [7]): <2.88 | Log10 reduction value (XMuLV [2]; [8]): >3.88 Log10 | Virus concentration (XMuLV [2]; [8]): <2.88 | Log10 reduction value (XMuLV [2]; <1 min, 1% detergent, BisAb): >4.03 Log10 | Virus concentration (XMuLV [2]; <1 min, 1% detergent, BisAb): <2.88 | Log10 reduction value (XMuLV [2]; [9]): >3.84 Log10 | Virus concentration (XMuLV [2]; [9]): <2.88

CCCCCCCCCCCCOCCOCCOCCOCCOCCOCCOCCOCCOCCO [Polidodecanol 600, 3,6,9,12,15,18,21,24,27-nonaoxanonatriacontan-1-ol]
Log10 reduction value (XMuLV [1]; 0 min): 0 Log10 | Virus concentration (XMuLV [1]; 0 min): 7.79 | Log10 reduction value (XMuLV [1]; 10 min): >4.61 Log10 | Virus concentration (XMuLV [1]; 10 min): <3.18 | Log10 reduction value (XMuLV [1]; 60 min): >4.61 Log10 | Virus concentration (XMuLV [1]; 60 min): <3.18 | Log10 reduction value (XMuLV [1]; 120 min): >4.61 Log10 | Virus concentration (XMuLV [1]; 120 min): <3.18 | Log10 reduction value (XMuLV [1]; <1 min): >4.61 Log10 | Log10 reduction value (XMuLV [2]; 0 min, 1% detergent, BisAb): 0 Log10 | Virus concentration (XMuLV [2]; 0 min, 1% detergent, BisAb): 7.00 | Log10 reduction value (XMuLV [2]; 10 min, 1% detergent, BisAb): >4.07 Log10 | Virus concentration (XMuLV [2]; 10 min, 1% detergent, BisAb): <2.88 | Log10 reduction value (XMuLV [2]; 60 min, 1% detergent, BisAb): >4.07 Log10 | Virus concentration (XMuLV [2]; 60 min, 1% detergent, BisAb): <2.88 | Log10 reduction value (XMuLV [2]; <1 min, 1% detergent, BisAb): >4.03 Log10 | Virus concentration (XMuLV [2]; <1 min, 1% detergent, BisAb): <2.88

CC(C)(C)CC(C)(C)c1ccc(O)cc1 [octlyphenol]
endocrine disruption (aquatic organisms): can behave as endocrine disrupters in aquatic organisms

Triton X-100 [reference compound]
Lysate AAV6 Titer (AAV6.2 cell paste): 11.03 Log10 vg/mL | enveloped virus inactivation (enveloped virus; diverse set of experimental conditions): greater than 4 logs | CaptoAVB Elu Infectivity (AAV6.2): 9.8 Log10 TCID50/mL | CaptoAVB Elu Titer (AAV6.2): 11.8 Log10 vg/mL | endocrine disruption (aquatic organisms): can behave as endocrine disrupters in aquatic organisms

polyoxyethylene (20) stearyl ether [Brij S20, reference compound]
Log10 reduction value (XMuLV [1]; 0 min): 0 Log10 | Virus concentration (XMuLV [1]; 0 min): 7.79 | Log10 reduction value (XMuLV [1]; 10 min): 2.90 Log10 | Virus concentration (XMuLV [1]; 10 min): 4.89 | Log10 reduction value (XMuLV [1]; 60 min): >4.61 Log10 | Virus concentration (XMuLV [1]; 60 min): <3.18 | Log10 reduction value (XMuLV [1]; 120 min): >4.61 Log10 | Virus concentration (XMuLV [1]; 120 min): <3.18 | Log10 reduction value (XMuLV [1]; <1 min): 0.89 Log10 | Virus concentration (XMuLV [1]; <1 min): 6.9 | viral inactivation kinetics (XMuLV [1]): significantly slower

polyoxyethylene (23) lauryl ether [Brij 35]
effectiveness for viral inactivation (enveloped virus; finding of Conley et al. (2017)): not effective for viral inactivation
